One assay has as its target mutant BRAF kinase (Homo sapiens (Human), UniProt P15056, V600E). Particulars: read-out: BRAF V600E Kd, class symbols.
In another assay the target is RAF kinases (Homo sapiens (Human), UniProt P04049). Particulars: read-out: RAF1 Kd, class symbols.
For assay [1], the system named is panel of 290 distinct kinases (321 in the larger panel), excluding mutant variants. The settings on record: kinase selectivity score, class symbols.
The mark [2] stands for this setting: value marked * (larger kinase panel).

Structures are written as SMILES. pKd: −log10 of the molar value. Counter-ions that a name gives are not always drawn. Like-named read-outs stand apart in the source and are kept apart here. A value given as a limit tells only on which side of the number the result lay.

RAF kinases, sequence (P04049 whole entry): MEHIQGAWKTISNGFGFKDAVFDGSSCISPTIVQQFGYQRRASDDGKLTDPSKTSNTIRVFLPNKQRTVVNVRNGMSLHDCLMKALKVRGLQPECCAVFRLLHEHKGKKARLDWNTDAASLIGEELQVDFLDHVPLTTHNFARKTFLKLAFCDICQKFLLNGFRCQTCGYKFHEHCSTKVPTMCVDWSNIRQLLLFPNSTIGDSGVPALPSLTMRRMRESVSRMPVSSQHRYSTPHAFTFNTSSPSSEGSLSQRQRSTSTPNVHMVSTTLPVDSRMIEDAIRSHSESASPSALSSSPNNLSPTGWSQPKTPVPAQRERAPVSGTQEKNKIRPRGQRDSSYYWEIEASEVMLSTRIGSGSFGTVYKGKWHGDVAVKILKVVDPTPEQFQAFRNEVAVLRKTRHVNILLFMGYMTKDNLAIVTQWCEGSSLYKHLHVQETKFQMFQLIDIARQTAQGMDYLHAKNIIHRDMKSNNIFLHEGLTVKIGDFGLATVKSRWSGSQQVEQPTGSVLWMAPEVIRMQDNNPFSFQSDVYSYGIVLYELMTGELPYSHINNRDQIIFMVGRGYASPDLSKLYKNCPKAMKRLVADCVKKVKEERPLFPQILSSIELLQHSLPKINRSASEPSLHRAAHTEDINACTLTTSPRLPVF
mutant BRAF kinase, sequence (P15056 whole entry V600E): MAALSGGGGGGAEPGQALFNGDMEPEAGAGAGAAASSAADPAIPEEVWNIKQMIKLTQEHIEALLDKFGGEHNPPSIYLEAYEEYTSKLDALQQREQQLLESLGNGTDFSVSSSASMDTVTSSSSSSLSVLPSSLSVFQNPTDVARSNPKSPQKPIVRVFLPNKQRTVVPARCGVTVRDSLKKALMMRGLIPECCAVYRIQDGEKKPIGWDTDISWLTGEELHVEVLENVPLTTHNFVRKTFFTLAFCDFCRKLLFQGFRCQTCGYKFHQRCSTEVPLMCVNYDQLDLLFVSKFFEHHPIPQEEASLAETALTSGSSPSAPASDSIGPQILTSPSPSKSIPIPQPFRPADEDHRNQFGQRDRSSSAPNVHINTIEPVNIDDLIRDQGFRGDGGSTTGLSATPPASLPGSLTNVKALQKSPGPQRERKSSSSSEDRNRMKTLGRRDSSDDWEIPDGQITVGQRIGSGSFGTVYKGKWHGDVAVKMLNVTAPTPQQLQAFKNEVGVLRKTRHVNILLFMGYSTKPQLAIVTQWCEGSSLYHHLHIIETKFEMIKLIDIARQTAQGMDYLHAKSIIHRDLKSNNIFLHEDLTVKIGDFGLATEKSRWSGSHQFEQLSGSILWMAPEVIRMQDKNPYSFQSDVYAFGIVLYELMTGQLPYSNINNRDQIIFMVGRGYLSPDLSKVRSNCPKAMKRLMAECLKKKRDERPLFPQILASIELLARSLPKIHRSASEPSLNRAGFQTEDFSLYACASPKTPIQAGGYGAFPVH
Description for RAF kinases: The liganded beads were blocked with excess biotin and washed with blocking buffer (SeaBlock (Pierce), 1% BSA, 0.05% Tween 20, 1 mM DTT) to remove unbound ligand and to reduce non-specific binding. […] Test compounds were prepared as 100× stocks in DMSO and rapidly diluted into the aqueous environment. DMSO was added to control assays lacking a test compound. Primary screen interactions were performed in polypropylene 384-well plates in a final volume of 34 μL, while Kd determinations were performed in polystyrene 96-well plates in a final volume of 135 μL. […] The kinase concentration in the eluates was measured by quantitative PCR. Each kinase was tested individually against each compound. KdS were determined using eleven serial threefold dilutions. A selectivity score, which is a quantitative measure of selectivity of a compound against a panel of enzymes, may be calculated for a compound by dividing the number of enzymes for which a compound meets a set criteria, (for example, a binding constant of 100 nM or less), by the total number of enzymes tested. […] (Note, for those compounds tested in a larger kinase panel, as indicated by an asterisk (*) next to the S35 score, the divisor is 321 (i.e. the larger panel contains 321 distinct kinases, excluding mutant variants.)).

On to `COc1cc2ncnc(Oc3cccc(NC(=O)Nc4cc(C(C)(C)C)on4)c3)c2cc1OCCN1CCCCC1` [Ex 16, 1-(5-tert-butylisoxazol-3-yl)-3-(3-(7-methoxy-6-(2-(piperidin-1-yl)ethoxy)quinazolin-4-yloxy)phenyl)urea], for which the pKd (commonly −log10 of the Kd, conventionally taken in molar units) at mutant BRAF kinase is above 6.60; on RAF kinases, below 6.00. In addition, the S35 result in assay [1] (290 distinct kinases) was “C (0.20 < C ≦ 0.40)”.
On to `COc1cc2ncnc(Oc3cccc(NC(=O)Nc4cc(C(C)(C)C)on4)c3)c2cc1OCCCN1CCS(=O)(=O)CC1` [Ex 26, 1-(5-tert-butyl-isoxazol-3-yl)-3-(3-{6-[3-(1,1-dioxo-thiomorpholin-4-yl)-propoxy]-7-methoxy-quinazolin-4-yloxy}-phenyl)-urea], for which the pKd on mutant BRAF kinase and at RAF kinases was above 6.60 throughout. Further, the S35 entry in assay [1] (290 distinct kinases) is recorded as “D (D > 0.40)”.
Regarding `COc1cc2c(Oc3cccc(NC(=O)Nc4cc(C(C)(C)C)on4)c3)ncnc2cc1OCCCN1CCN(C)CC1` [Ex 28, 1-(5-tert-butylisoxazol-3-yl)-3-(3-(6-methoxy-7-(3-(4-methylpiperazin-1-yl)propoxy)quinazolin-4-yloxy)phenyl)urea], the pKd at mutant BRAF kinase and at RAF kinases was above 6.60 in each case. In addition, the S35 entry in assay [1] (290 distinct kinases) is listed as “D (D > 0.40)”.
As for `COc1cc2ncnc(Sc3cccc(NC(=O)Nc4cc(C(C)(C)C)on4)c3)c2cc1OCCCN1CCN(CCO)CC1` [Ex 61, 1-(5-tert-butylisoxazol-3-yl)-3-(3-(6-(3-(4-(2-hydroxyethyl)piperazin-1-yl)propoxy)-7-methoxyquinazolin-4-ylthio)phenyl)urea], the pKd at mutant BRAF kinase and on RAF kinases was above 6.60 in each case. Further, the S35 result in assay [1] (290 distinct kinases) is “D (D > 0.40)”.
As to `COc1cc2ncnc(Sc3cccc(NC(=O)Nc4cc(C(C)(C)C)on4)c3)c2cc1OCCCN1CCS(=O)(=O)CC1` [Ex 62, 1-(5-tert-butyl-isoxazol-3-yl)-3-(3-{6-[3-(1,1-dioxo-thiomorpholin-4-yl)-propoxy]-7-methoxy-quinazolin-4-ylsulfanyl}-phenyl)-urea], the pKd at mutant BRAF kinase and at RAF kinases was above 6.60 in each case. For the same molecule, the S35 result in assay [1] (290 distinct kinases) was “C (0.20 < C ≦ 0.40)”.
`COc1cc2ncnc(Sc3cccc(NC(=O)Nc4cc(C(C)(C)C)on4)c3)c2cc1OCCCN1CCOCC1` [Ex 63, 1-(5-tert-butylisoxazol-3-yl)-3-(3-(7-methoxy-6-(3-morpholinopropoxy)quinazolin-4-ylthio)phenyl)urea]: the pKd at mutant BRAF kinase and at RAF kinases was above 6.60 throughout. Further, the S35 entry in assay [1] (290 distinct kinases) is given as “C (0.20 < C ≦ 0.40)”.
Take `COc1cc2ncnc(Sc3cccc(NC(=O)Nc4cc(C(C)(C)C)on4)c3)c2cc1OCCN1CCOCC1` [Ex 70, 1-(5-tert-butylisoxazol-3-yl)-3-(3-(7-methoxy-6-(2-morpholinoethoxy)quinazolin-4-ylthio)phenyl)urea]: the pKd on mutant BRAF kinase and at RAF kinases was above 6.60 each time. In assay [1] (290 distinct kinases), the S35 result was “C (0.20 < C ≦ 0.40)”.
Regarding `COc1cc2c(Sc3cccc(NC(=O)Nc4cc(C(C)(C)C)on4)c3)ncnc2cc1OCCCN1CCC(CO)CC1` [Ex 74, 1-(5-tert-butylisoxazol-3-yl)-3-(3-(7-(3-(4-(hydroxymethyl)piperidin-1-yl)propoxy)-6-methoxyquinazolin-4-ylthio)phenyl)urea], the pKd at mutant BRAF kinase and on RAF kinases was above 6.60 throughout. In addition, the S35 entry in assay [1] (290 distinct kinases) is listed as “D (D > 0.40)”.
In the case of `COc1cc2c(Oc3cccc(NC(=O)Nc4cc(C(C)(C)C)on4)c3)ncnc2cc1O[C@H]1CCNC1` [Ex 96, (S)-1-(5-tert-butylisoxazol-3-yl)-3-(3-(6-methoxy-7-(pyrrolidin-3-yloxy)quinazolin-4-yloxy)phenyl)urea dihydrochloride], the negative logarithm of the Kd (pKd) at mutant BRAF kinase and on RAF kinases was above 6.60 throughout. Also, the S35 entry in assay [1] (290 distinct kinases) is reported as “C (0.20 < C ≦ 0.40)”.
Take `COc1cc2c(Oc3cccc(NC(=O)Nc4cc(C(C)(C)C)on4)c3)ncnc2cc1O[C@@H]1CCNC1` [Ex 98, (R)-1-(5-tert-butylisoxazol-3-yl)-3-(3-(6-methoxy-7-(pyrrolidin-3-yloxy)quinazolin-4-yloxy)phenyl)urea dihydrochloride]: the pKd at mutant BRAF kinase and at RAF kinases was above 6.60 in each case. In addition, the S35 result in assay [1] (290 distinct kinases) is “C (0.20 < C ≦ 0.40)”.
As for `COc1cc2ncnc(Oc3cccc(NC(=O)Nc4cc(C(C)(C)C)on4)c3)c2cc1O` [Ex 107, 1-(5-tert-butylisoxazol-3-yl)-3-(3-(6-hydroxy-7-methoxyquinazolin-4-yloxy)phenyl)urea], the pKd at mutant BRAF kinase and on RAF kinases was above 6.60 throughout. Further, in assay [1] (290 distinct kinases), the S35 result is “C (0.20 < C ≦ 0.40)”.
In the case of `COc1cc2ncnc(Oc3cccc(NC(=O)Nc4cc(C(C)(C)C)on4)c3)c2cc1O[C@H]1CCN(CC(F)F)C1` [Ex 110, (S)-1-(5-tert-butylisoxazol-3-yl)-3-(3-(6-(1-(2,2-difluoroethyl)pyrrolidin-3-yloxy)-7-methoxyquinazolin-4-yloxy)phenyl)urea], the pKd at mutant BRAF kinase and on RAF kinases was above 6.60 in each case. Also, in assay [1] (290 distinct kinases), the S35 result is on record as “C (0.20 < C ≦ 0.40)”.
For `COc1cc2ncnc(Oc3cccc(NC(=O)Nc4cc(C(C)(C)C)on4)c3)c2cc1OC[C@@H](O)CN1CCN(C)CC1` [Ex 111, (S)-1-(5-tert-butylisoxazol-3-yl)-3-(3-(6-(2-hydroxy-3-(4methylpiperazin-1-yl)propoxy)-7-methoxyquinazolin-4-yloxy)phenyl)urea], the pKd at mutant BRAF kinase and on RAF kinases was above 6.60 each time. Also, the S35 entry in assay [1] (290 distinct kinases) is given as “D (D > 0.40)”.
Consider `COc1cc2ncnc(Oc3cccc(NC(=O)Nc4cc(-c5ccccc5)on4)c3)c2cc1OC` [Ex 113, 1-(3-(6,7-dimethoxyquinazolin-4-yloxy)phenyl)-3-(5-phenylisoxazol-3-yl)urea], for which the pKd on RAF kinases was above 6.60. Further, the S35 result in assay [1] (290 distinct kinases) was “B (0.10 < B ≦ 0.20)”.
Regarding `COc1cc2ncnc(Oc3cccc(NC(=O)Nc4cccc(C(C)(C)C)c4)c3)c2cc1OC` [Ex 118, 1-(3-tert-butylphenyl)-3-(3-(6,7-dimethoxyquinazolin-4-yloxy)phenyl)urea], the pKd at mutant BRAF kinase and at RAF kinases was above 6.60 in each case. The S35 entry in assay [1] (setting [2]) is “C* (0.20 < C ≦ 0.40)”.
`COc1cc2ncnc(Sc3cccc(NC(=O)Nc4cccc(C(C)(C)C)c4)c3)c2cc1OC` [Ex 120, 1-(3-tert-butylphenyl)-3-(3-(6,7-dimethoxyquinazolin-4-ylthio)phenyl)urea]: the pKd at mutant BRAF kinase and on RAF kinases was above 6.60 throughout. For the same molecule, the S35 result in assay [1] (setting [2]) was “C* (0.20 < C ≦ 0.40)”.
For the molecule `COc1cc2ncnc(Oc3cccc(NC(=O)Nc4cc(C(C)(C)CO)on4)c3)c2cc1OC` [Ex 131, 1-(3-(6,7-dimethoxyquinazolin-4-yloxy)phenyl)-3-(5-(1-hydroxy-2-methylpropan-2-yl)isoxazol-3-yl)urea], the pKd on mutant BRAF kinase and on RAF kinases was above 6.60 throughout. For the same molecule, in assay [1] (290 distinct kinases), the S35 result was “C (0.20 < C ≦ 0.40)”.
Regarding `COc1cc2ncnc(Oc3cccc(NC(=O)Nc4cc(C(F)(F)F)ncn4)c3)c2cc1OC` [Ex 146, 1-(3-(6,7-dimethoxyquinazolin-4-yloxy)phenyl)-3-(6-(trifluoromethyl)pyrimidin-4-yl)urea], at mutant BRAF kinase, the pKd was above 6.60. Also, the S35 entry in assay [1] (setting [2]) is reported as “B* (0.10 < B ≦ 0.20)”.
Consider `COc1cc2ncnc(Oc3cccc(NC(=O)Nc4cc(C(C)(F)F)no4)c3)c2cc1OC` [Ex 152, 1-(3-(1,1-difluoroethyl)isoxazol-5-yl)-3-(3-(6,7-dimethoxyquinazolin-4-yloxy)phenyl)urea], for which the pKd on mutant BRAF kinase was above 6.60. Moreover, in assay [1] (setting [2]), the S35 entry is given as “C* (0.20 < C ≦ 0.40)”.
As to `COc1cc2ncnc(Sc3cccc(NC(=O)Nc4cc(C(C)(C)C)nn4C)c3)c2cc1OC` [Ex 157, 1-(3-tert-butyl-1-methyl-1H-pyrazol-5-yl)-3-(3-(6,7-dimethoxyquinazolin-4-ylthio)phenyl)urea], the pKd on mutant BRAF kinase was above 6.60. In assay [1] (setting [2]), the S35 result was “C* (0.20 < C ≦ 0.40)”.
On to `COc1cc2ncnc(Sc3cccc(NC(=O)Nc4cc(C(C)(CF)CF)no4)c3)c2cc1OC` [Ex 160, 1-[3-(1,3-difluoro-2-methylpropan-2-yl)isoxazol-5-yl]-3-[3-(6,7-dimethoxyquinazolin-4-ylthio]phenyl)urea], for which, on mutant BRAF kinase, the pKd was above 6.60. The S35 entry in assay [1] (setting [2]) was “C* (0.20 < C ≦ 0.40)”.
Consider `COc1cc2ncnc(Oc3cccc(NC(=O)Nc4ccc(C(C)(C)C)cc4)c3)c2cc1OC` [Ex 173, 1-(4-tert-butylphenyl)-3-(3-(6,7-dimethoxyquinazolin-4-yloxy)phenyl)urea], for which, at mutant BRAF kinase, the pKd is above 6.60. In addition, the S35 entry in assay [1] (290 distinct kinases) is reported as “C (0.20 < C ≦ 0.40)”.
For `COc1cc2ncnc(Oc3cccc(NC(=O)Nc4ccc(Cl)c(C(F)(F)F)c4)c3)c2cc1OC` [Ex 176, 1-(4-chloro-3-(trifluoromethyl)phenyl)-3-(3-(6,7-dimethoxyquinazolin-4-yloxy)phenyl)urea], the pKd on mutant BRAF kinase was above 6.60. Also, the S35 entry in assay [1] (290 distinct kinases) is recorded as “C (0.20 < C ≦ 0.40)”.
On to `COc1cccc(NC(=O)Nc2cccc(Oc3ncnc4cc(OC)c(OC)cc34)c2)c1` [Ex 178, 1-(3-(6,7-dimethoxyquinazolin-4-yloxy)phenyl)-3-(3-methoxyphenyl)urea], for which the pKd on mutant BRAF kinase was above 6.60. In addition, in assay [1] (setting [2]), the S35 result was “B* (0.10 < B ≦ 0.20)”.
In the case of `CCOc1cccc(NC(=O)Nc2cccc(Oc3ncnc4cc(OC)c(OC)cc34)c2)c1` [Ex 179, 1-(3-(6,7-dimethoxyquinazolin-4-yloxy)phenyl)-3-(3-ethoxyphenyl)urea], the pKd at mutant BRAF kinase is above 6.60. Besides, in assay [1] (setting [2]), the S35 result is listed as “B* (0.10 < B ≦ 0.20)”.
As to `COCCOc1cc(NC(=O)Nc2cccc(Sc3ncnc4cc(OC)c(OC)cc34)c2)cc(C(F)(F)F)c1` [Ex 200, 1-(3-(6,7-dimethoxyquinazolin-4-ylthio)phenyl)-3-(3-(2-methoxyethoxy)-5-(trifluoromethyl)phenyl)urea], at RAF kinases, the negative-log Kd (pKd) is below 6.00. For the same molecule, the S35 result in assay [1] (290 distinct kinases) is “C (0.20 < C ≦ 0.40)”.
With `COCCOc1cc2ncnc(Oc3cccc(NC(=O)Nc4cc(C(C)(C)C)no4)c3)c2cc1OC` [Ex 202, 1-(3-tert-butylisoxazol-5-yl)-3-(3-(6-methoxy-7-(2-methoxyethoxy)quinazolin-4-yloxy)phenyl)urea], at mutant BRAF kinase, the pKd is above 6.60. In addition, the S35 result in assay [1] (290 distinct kinases) is reported as “C (0.20 < C ≦ 0.40)”.

The record behind these values is patent US9730937B2, “RAF kinase modulator compounds and methods of use thereof” (AMBIT BIOSCIENCES CORPORATION, priority 2008, dated 2017).
